Source: ChEMBL document CHEMBL3804817, “Development of novel bis-naphthalimide derivatives and their anticancer properties” (Medchemcomm, 2016)
Calls of active or inactive are those of the source. The rule behind the calls is not given here.

Columns and labels:
HeLa [1] = test: Cytotoxicity against human HeLa cells after 48 hrs by MTT assay; assay type: functional, cell-based
MCF7 = test: Cytotoxicity against human MCF7 cells after 48 hrs by MTT assay; assay type: functional, cell-based; details: MCF7, 48 h
A549 = test: Cytotoxicity against human A549 cells after 48 hrs by MTT assay; assay type: functional, cell-based; details: A549, 48 h
[2] = Cytotoxicity against human SGC7901 cells after 48 hrs by MTT assay; assay type: functional, cell-based; details: SGC-7901, 48 h
HeLa [3] = test: Cell cycle arrest in human HeLa cells assessed as increase in accumulation at S phase by flow cytometry; assay type: functional, cell-based
HeLa [4] = test: Cell cycle arrest in human HeLa cells assessed as decrease in accumulation at G0/G1 phase phase by flow cytometry; assay type: functional, cell-based
HeLa [5] = test: Induction of apoptosis in human HeLa cells assessed as early apoptotic cells at 10 uM by Annexin V-FITC/propidium iodide staining-based flow cytometry (reference value: 0.05%); assay type: functional
Mus musculus [6] = test: Toxicity in Balb/c mouse assessed as decrease in number of WBC at 5 to 20 mg/kg, iv measured after 24 to 96 hrs; assay type: organism-based; details: in vivo
Calf thymus DNA [7] = test: Induction of DNA intercalation of calf thymus DNA assessed as binding constant by fluorescence spectrophotometry; assay type: nucleic-acid assay; details: Bos taurus
HeLa [8] = test: Induction of apoptosis in human HeLa cells assessed as early apoptotic cells at 5 uM by Annexin V-FITC/propidium iodide staining-based flow cytometry (reference value: 0.05%); assay type: functional
HeLa [9] = test: Cell cycle arrest in human HeLa cells assessed as accumulation at S phase at 1 to 10 uM after 48 hrs by flow cytometry; assay type: functional
HeLa [10] = test: Induction of apoptosis in human HeLa cells assessed as early apoptotic cells at 2.5 uM by Annexin V-FITC/propidium iodide staining-based flow cytometry (reference value: 0.05%); assay type: functional
HeLa [11] = test: Induction of apoptosis in human HeLa cells assessed as late apoptotic cells at 5 uM by Annexin V-FITC/propidium iodide staining-based flow cytometry (reference value: 0.02%); assay type: functional
HeLa [12] = test: Binding affinity to DNA in human HeLa cells at 2 uM after 12 hrs by confocal microscopy; assay type: cell-based
Calf thymus DNA [13] = test: Induction of DNA intercalation of calf thymus DNA assessed as increase in intensity of positive band at 275 nm at 2 x 10^-5 M by circular dichroism spectroscopy; assay type: nucleic-acid assay; details: Bos taurus
HeLa [14] = test: Cell cycle arrest in human HeLa cells assessed as accumulation at G1/G0 phase at 1 to 10 uM after 48 hrs by flow cytometry; assay type: functional
Mus musculus [15] = test: Toxicity in Balb/c mouse assessed as increase in number of platelets at 5 to 20 mg/kg, iv measured after 24 to 96 hrs; assay type: organism-based; details: in vivo
Mus musculus [16] = test: Cardiotoxicity in Balb/c mouse assessed as increase in AST level at 5 to 20 mg/kg, iv measured after 24 hrs; assay type: toxicity, organism-based; details: in vivo
Calf thymus DNA [17] = test: Induction of DNA intercalation of calf thymus DNA assessed as increase in fluorescence intensity by fluorescence spectrophotometry; assay type: nucleic-acid assay; details: Bos taurus
Calf thymus DNA [18] = test: Induction of DNA intercalation of calf thymus DNA assessed as hypsochromic shift by fluorescence spectrophotometry (reference value: 530 nanometer); assay type: nucleic-acid assay; details: Bos taurus
Calf thymus DNA [19] = test: Induction of DNA intercalation of calf thymus DNA assessed as reduction in intensity of absorption using 0 to 6 x 10^-5 M calf thymus DNA by UV spectrophotometry; assay type: nucleic-acid assay; details: Bos taurus
HeLa [20] = test: Induction of lysosome membrane permeabilization in human HeLa cells by […] (reference value: 1.69%); assay type: functional
HeLa [21] = test: Induction of apoptosis in human HeLa cells assessed as late apoptotic cells at 1 uM by Annexin V-FITC/propidium iodide staining-based flow cytometry (reference value: 0.02%); assay type: functional
Mus musculus [22] = test: Cardiotoxicity in Balb/c mouse assessed as increase in LDH level at 5 to 20 mg/kg, iv measured after 24 hrs; assay type: toxicity, organism-based; details: in vivo
Calf thymus DNA [23] = test: Induction of DNA intercalation of calf thymus DNA at 1 x 10^-5 M measured at 530 nm by fluorescence spectrophotometry; assay type: nucleic-acid assay; details: Bos taurus
Calf thymus DNA [24] = test: Induction of DNA intercalation of calf thymus DNA assessed as increase in intensity of negative band at 245 nm at 2 x 10^-5 M by circular dichroism spectroscopy; assay type: nucleic-acid assay; details: Bos taurus
Calf thymus DNA [25] = test: Induction of DNA intercalation of calf thymus DNA measured at 320 to 520 nm at 2 x 10^-5 M by circular dichroism spectroscopy; assay type: nucleic-acid assay; details: Bos taurus
HeLa [26] = test: Induction of apoptosis in human HeLa cells assessed as early apoptotic cells at 1 uM by Annexin V-FITC/propidium iodide staining-based flow cytometry (reference value: 0.05%); assay type: functional
Calf thymus DNA [27] = test: Induction of DNA intercalation of calf thymus DNA assessed as change in melting temperature at 5 x 10^-6 M by thermal denaturation analysis; assay type: nucleic-acid assay; details: Bos taurus
HeLa [28] = test: Induction of apoptosis in human HeLa cells assessed as late apoptotic cells at 10 uM by Annexin V-FITC/propidium iodide staining-based flow cytometry (reference value: 0.02%); assay type: functional
Mus musculus [29] = test: Toxicity in Balb/c mouse assessed as change in RBC at 5 to 20 mg/kg, iv measured after 24 to 96 hrs; assay type: organism-based; details: in vivo
HeLa [30] = test: Cell cycle arrest in human HeLa cells assessed as accumulation at G2/M phase at 1 to 10 uM after 48 hrs by flow cytometry; assay type: functional
HeLa [31] = test: Induction of apoptosis in human HeLa cells assessed as late apoptotic cells at 2.5 uM by Annexin V-FITC/propidium iodide staining-based flow cytometry (reference value: 0.02%); assay type: functional
Calf thymus DNA [32] = test: Induction of DNA intercalation of calf thymus DNA assessed as increase in intensity of absorption using > 6 x 10^-5 M calf thymus DNA by UV spectrophotometry; assay type: nucleic-acid assay; details: Bos taurus
Mus musculus [33] = test: Cardiotoxicity in Balb/c mouse assessed as increase in CK level at 5 to 20 mg/kg, iv measured after 24 hrs; assay type: toxicity, organism-based; details: in vivo

Compound: CN(CCCN1C(=O)c2cccc3c(N4CCC[C@@H]4CO)ccc(c23)C1=O)CCCN1C(=O)c2cccc3c(N4CCC[C@@H]4CO)ccc(c23)C1=O
- IC50 (HeLa [1]): > 50 µM
- IC50 (MCF7): > 50 µM
- IC50 (A549): 4710 nM
- IC50 [2]: 4.46 µM

Compound: CN(CCCN1C(=O)c2cccc3c(N4CC[C@H](O)C4)ccc(c23)C1=O)CCCN1C(=O)c2cccc3c(N4CC[C@H](O)C4)ccc(c23)C1=O
- IC50 (HeLa [1]): 1.05 µM
- IC50 (MCF7): 14 µM
- IC50 (A549): 600 nM
- IC50 [2]: 2.47 µM

Compound: CN(C)CCN1C(=O)c2cccc3cc(N)cc(c23)C1=O [AMONAFIDE]
- IC50 (HeLa [1]): 4.36 µM
- IC50 (MCF7): 8.02 µM
- Activity (HeLa [3]): Dose-dependent effect
- IC50 (A549): 1590 nM
- IC50 [2]: 5.32 µM
- inhibition (HeLa [4]): Dose-dependent effect

Compound: CN(CCCN1C(=O)c2cccc3c(N4CC[C@@H](O)C4)ccc(c23)C1=O)CCCN1C(=O)c2cccc3c(N4CC[C@@H](O)C4)ccc(c23)C1=O
- IC50 (HeLa [1]): 3.65 µM
- IC50 (MCF7): 32.9 µM
- IC50 (A549): 1590 nM
- IC50 [2]: 23.2 µM

Compound: CN(CCCN1C(=O)c2cccc3c(N4CCC(CCO)CC4)ccc(c23)C1=O)CCCN1C(=O)c2cccc3c(N4CCC(CCO)CC4)ccc(c23)C1=O
- IC50 (HeLa [1]): > 50 µM
- IC50 (MCF7): > 50 µM
- IC50 (A549): 3200 nM
- IC50 [2]: 3.63 µM

Compound: CN(CCCN1C(=O)c2cccc3c(N4CCC[C@H]4CO)ccc(c23)C1=O)CCCN1C(=O)c2cccc3c(N4CCC[C@H]4CO)ccc(c23)C1=O
- IC50 (HeLa [1]): > 50 µM
- IC50 (MCF7): 9.07 µM
- IC50 (A549): 3050 nM
- IC50 [2]: 2.3 µM

Compound: CN(CCCN1C(=O)c2cccc3c(N4CCN(CCO)CC4)ccc(c23)C1=O)CCCN1C(=O)c2cccc3c(N4CCN(CCO)CC4)ccc(c23)C1=O
- IC50 (HeLa [1]): 2.31 µM
- Activity (HeLa [5]): 41.51%
- Activity (Mus musculus [6]): Non-toxic
- K (Calf thymus DNA [7]): 1.2 ×10⁵ /M
- Activity (HeLa [8]): 16.41%
- Activity (HeLa [9]): 29.79%
- Activity (HeLa [10]): 15.9%
- IC50 (MCF7): 2.94 µM
- Activity (HeLa [11]): 10.4%
- Activity (HeLa [12]): Active
- Activity (Calf thymus DNA [13]): Active
- Activity (HeLa [14]): 57.79%
- Activity (Mus musculus [15]): Non-toxic
- Activity (Mus musculus [16]): Non-toxic
- Activity (Calf thymus DNA [17]): Active
- Activity (Calf thymus DNA [18]): 520 nm
- Activity (Calf thymus DNA [19]): Active
- Activity (HeLa [20]): 99.65%
- Activity (HeLa [21]): 2.09%
- Activity (Mus musculus [22]): Non-toxic
- Activity (Calf thymus DNA [23]): Active
- Activity (Calf thymus DNA [24]): Active
- Activity (Calf thymus DNA [25]): Active
- IC50 (A549): 1210 nM
- IC50 [2]: 0.88 µM
- Activity (HeLa [26]): 11.72%
- ΔTm (Calf thymus DNA [27]): 8 °C
- Activity (HeLa [28]): 51.22%
- Activity (Mus musculus [29]): Non-toxic
- Activity (HeLa [30]): 3.1%
- Activity (HeLa [31]): 3.21%
- Activity (Calf thymus DNA [32]): Active
- Activity (Mus musculus [33]): Non-toxic
